# Tests used:
# [1] = Absorption through skin: DEET level in plasma by HPLC; type: in vivo, mice; conditions: 200 μl of 60% on abdominal skin
# Procedure: Briefly, the Bond-Elute cartridges were activated by washing with two ml of HPLC grade acetonitrile (Sigma chemicals Co., St. Louis, Mo.) followed by two ml of deionized, degassed filtered water. A low vacuum (<0.5 in Hg) was applied for the wash using a Vac-Elute manifold (Varian Analytical Supplies Co.). […] Hg). The cartridge was then washed with three mls. of acetonitrile-ammoniumacetate (pH 4.5, 0.03 M, at 40:60 V:V) under low vacuum (<0.5 in. Hg). The eluant was then injected directly onto columns (ODS-1, 250×4.6 mm, Alltech Co., Deerfield, Ill.) for HPLC analysis (Waters, Division of Millipore, Milford, Mass.). Chromatographic conditions used for HPLC analysis is as follows: Mobil phase: acetonitrile-ammoniumacetate (pH 4.5, 0.03M, at 36:64 v:v), flow rate 1.0 ml/min, UV detection at 220 nm. Sensitivity was set at 0.01AUFS. […].
# Aedes aegypti = assay: Laboratory evaluation as mosquito repellant on human volunteers; type: in vivo; conditions: 10% or 30%; human forearm
# Procedure: However, one of the major uses of DEET is against mosquitoes. Therefore, we wanted to test whether Lipodeet prolongs the mosquito repellency activity of DEET. These experiments were conducted on human volunteers at the Illinois Natural History Survey Center for Economic Entomology, University of Illinois Urbana-Champaign. […] The test solutions were applied to 8.5 cm area (1.76 μl/cm^2) on the forearm of the subjects and the duration of repellency against the mosquitoes was evaluated over a period of 24 hrs. No treatment was applied to the other forearm and this remained as controls. Paper cups (1 pint) screened at one end with a fine mesh and closed at the other end was used as test cages in this study. […] Five minutes after application of the samples were treated as time 0. After the exposure, mosquitoes were removed and the number that were blooded were counted. Values were expressed as follows: [formula]
# [2] = test system: cercariae of Schistosoma mansoni; assay: In vitro effects of DEET on S. mansoni cercariae (viability by neutral red); type: cell-based
# Procedure: FIG. 1 illustrates the in vitro effects of DEET on S. mansoni cercariae. In vitro effects of DEET on cercariae of Schistosoma mansoni. Cercariae were placed in 96 well titre plates coated previously with a serial doubling dilutions of DEET ranging from 30% to 0.24%. At different time periods after exposure to DEET, the percent viability of cercariae was evaluated by neutral red exclusion method. The experiment was repeated 17 times with an “n” of 189 to 440 cercariae for each treatment.
# Based on the foregoing observations, DEET was tested for its effects on S. mansoni cercariae. DEET is commercially available and was purchased from Fluka Chemicals Corp. (Ronkonkoma, N.Y.). For in vitro studies, serial doubling dilutions of DEET ranging from 30% to 0.24% were prepared in isopropanol(Sigma, St. Louis, Mo.) and 50 μl of each dilution was transferred to individual wells of a 96 well flat bottom micro titre plate (Costar, Cambridge, Mass.). Control wells received 50 μl of isopropanol each. The plates were then kept covered in a fume hood and the fluid was allowed to evaporate overnight. The following day approximately 50 cercariae of S. mansoni suspended in 50 μl of RPMI-1640 media (pH 7.4; Gibco BRL) or phosphate buffered saline (PBS, pH 7.0) was placed in each well and the viability of the cercariae were monitored at 30 min, 60 min, and 4 hrs. A total of 17 replicas were performed for each dilution and for each time point in any one given experiment. To determine the viability of cercariae, 10 μl of a 0.05% Neutral Red (Sigma Chemical Co.) was added to each well at the end of the experiment and the percentage of live and dead cercariae was determined as described in He et al., Acta Zoologica Sinica, 31:240-245 (1985).
smiles,measurement,setting,value
"CCN(CC)C(=O)c1cccc(C)c1 [DEET, N,N-diethyl-m-toluamide]",DEET present in the plasma,[1]; 15 min,11.6 mg
same,"DEET present in the plasma, percent",[1]; 15 min,9.7%
same,DEET present in the plasma,[1]; 30 min,5.3 mg
same,"DEET present in the plasma, percent",[1]; 30 min,4.4%
same,DEET present in the plasma,[1]; 60 min,~0.182 mg
same,"DEET present in the plasma, percent",[1]; 60 min,0.15%
same,duration of mosquito repellent effect,Aedes aegypti,completely lost by six hours
same,time to immobilize all the cercariae,[2]; DEET 7.5%,≤ 5 min
same,cercariae dead,"[2]; DEET 7.5%, by 4 hours",100%
same,immobilization of cercariae,[2]; DEET at concentrations of 15% and above,immediately immobilized
same,cercariae dead (neutral red staining),"[2]; DEET at concentrations of 15% and above, 30 minutes",100%
same,immobilizing or killing of cercariae,[2]; concentrations below 7.5% of DEET,less effective in immobilizing or killing cercariae

# Reference: patent US6447801B1, “Anti-parasitic action of N,N-diethyl-m-toluamide (deet) and formulations that prolong its activity in the skin” (priority 1997, dated 2002)
